# Results: PMC5418449, “Characterisation of CCT271850, a selective, oral and potent MPS1 inhibitor, used to directly measure in vivo MPS1 inhibition vs therapeutic efficacy” (British Journal of Cancer, 2017)
# Like-named read-outs stand apart in the source and are kept apart here.
# How the values were obtained:
# OVCAR4 = tested on: OVCAR4; parameters: MTT antiproliferation assay, absorbance at 570 nm, human cancer cell line panel; conditions: 3-day MTT; inhibitor; read-out: Table S1. IC50 of CCT271850 determined by MTT and clonogenic assays (CA). / All cell lines were tested at least 2 times. / 3-day MTT
# Method: (§1) Cell lines were obtained from the American Type Culture Collection and grown in their recommended culture medium, supplemented with 10% FBS at 37 °C in 5% CO2. In-house authentication of cell lines by SNP profiling was carried out and cultured cells were passaged for less than 6 months before replacement from early-passage frozen stocks. Cells were regularly screened for Mycoplasma, using a PCR-based assay (VenorGem; Minerva Biolabs, Berlin, Germany). Transfections were carried out at ∼80% confluency with the plasmids indicated, using Lipofectamine LTX (15338030, Life Technologies, Carlsbad, CA, USA) according to the manufacturer's instructions. Cell proliferation assays were carried out by colorimetric MTT method (Sigma, St Louis, MO, USA) as described elsewhere ([Mosmann, 1983]). Briefly, cells were plated in 96-well plates at 2000–5000 cells per well (depending on the cell line) followed by treatment with two-fold dilutions of 0–25 μM drug for 72 h. Absorbance was measured at 570 nm with the Wallac VICTOR2 1420 Multilabel Counter (PerkinElmer, Waltham, MA, USA). To evaluate CCT271850 antiproliferation effects in a large panel of human cancer cell lines, 91 cell lines were treated for 72 h and 14 days at different compound concentrations in growth inhibition assays. The growth inhibition values as measured by IC50 are summarised in Table 2 and Supplementary Table S1. […] Cell lines from colon and head and neck cancers were among the most sensitive.
# O13 = tested on: O13; parameters: MTT antiproliferation assay, absorbance at 570 nm, human cancer cell line panel; conditions: 3-day MTT; inhibitor; read-out: Table S1. IC50 of CCT271850 determined by MTT and clonogenic assays (CA). / All cell lines were tested at least 2 times. / 3-day MTT
# Method: as §1
# TYK-Nu = tested on: TYK-Nu; parameters: MTT antiproliferation assay, absorbance at 570 nm, human cancer cell line panel; conditions: 3-day MTT; inhibitor; read-out: Table S1. IC50 of CCT271850 determined by MTT and clonogenic assays (CA). / All cell lines were tested at least 2 times. / 3-day MTT
# Method: as §1
# OVCAR3 = tested on: OVCAR3; parameters: MTT antiproliferation assay, absorbance at 570 nm, human cancer cell line panel; conditions: 3-day MTT; inhibitor; read-out: Table S1. IC50 of CCT271850 determined by MTT and clonogenic assays (CA). / All cell lines were tested at least 2 times. / 3-day MTT
# Method: as §1
# 011B = tested on: 011B; parameters: MTT antiproliferation assay, absorbance at 570 nm, human cancer cell line panel; conditions: 3-day MTT; inhibitor; read-out: Table S1. IC50 of CCT271850 determined by MTT and clonogenic assays (CA). / All cell lines were tested at least 2 times. / 3-day MTT
# Method: as §1
# PATU-8988T = tested on: PATU-8988T; parameters: MTT antiproliferation assay, absorbance at 570 nm, human cancer cell line panel; conditions: 3-day MTT; inhibitor; read-out: Table S1. IC50 of CCT271850 determined by MTT and clonogenic assays (CA). / All cell lines were tested at least 2 times. / 3-day MTT
# Method: as §1
# 005A = tested on: 005A; parameters: MTT antiproliferation assay, absorbance at 570 nm, human cancer cell line panel; conditions: 3-day MTT; inhibitor; read-out: Table S1. IC50 of CCT271850 determined by MTT and clonogenic assays (CA). / All cell lines were tested at least 2 times. / 3-day MTT
# Method: as §1
# 015B = tested on: 015B; parameters: MTT antiproliferation assay, absorbance at 570 nm, human cancer cell line panel; conditions: 3-day MTT; inhibitor; read-out: Table S1. IC50 of CCT271850 determined by MTT and clonogenic assays (CA). / All cell lines were tested at least 2 times. / 3-day MTT
# Method: as §1
# PANC-1 = tested on: PANC-1; parameters: MTT antiproliferation assay, absorbance at 570 nm, human cancer cell line panel; conditions: 3-day MTT; inhibitor; read-out: Table S1. IC50 of CCT271850 determined by MTT and clonogenic assays (CA). / All cell lines were tested at least 2 times. / 3-day MTT
# Method: as §1
# EF027 = tested on: EF027; parameters: MTT antiproliferation assay, absorbance at 570 nm, human cancer cell line panel; conditions: 3-day MTT; inhibitor; read-out: Table S1. IC50 of CCT271850 determined by MTT and clonogenic assays (CA). / All cell lines were tested at least 2 times. / 3-day MTT
# Method: as §1
# Lon-HN5 = tested on: Lon-HN5; parameters: MTT antiproliferation assay, absorbance at 570 nm, human cancer cell line panel; conditions: 3-day MTT; inhibitor; read-out: Table S1. IC50 of CCT271850 determined by MTT and clonogenic assays (CA). / All cell lines were tested at least 2 times. / 3-day MTT
# Method: as §1
# PA-1 = tested on: PA-1; parameters: MTT antiproliferation assay, absorbance at 570 nm, human cancer cell line panel; conditions: 3-day MTT; inhibitor; read-out: Table S1. IC50 of CCT271850 determined by MTT and clonogenic assays (CA). / All cell lines were tested at least 2 times. / 3-day MTT
# Method: as §1
# PJ34 [1] = tested on: PJ34; parameters: MTT antiproliferation assay, absorbance at 570 nm, human cancer cell line panel; conditions: 3-day MTT; inhibitor; read-out: Table S1. IC50 of CCT271850 determined by MTT and clonogenic assays (CA). / All cell lines were tested at least 2 times. / 3-day MTT
# Method: as §1
# PJ41 = tested on: PJ41; parameters: MTT antiproliferation assay, absorbance at 570 nm, human cancer cell line panel; conditions: 3-day MTT; inhibitor; read-out: Table S1. IC50 of CCT271850 determined by MTT and clonogenic assays (CA). / All cell lines were tested at least 2 times. / 3-day MTT
# Method: as §1
# CAL27 = tested on: CAL27; parameters: MTT antiproliferation assay, absorbance at 570 nm, human cancer cell line panel; conditions: 3-day MTT; inhibitor; read-out: Table S1. IC50 of CCT271850 determined by MTT and clonogenic assays (CA). / All cell lines were tested at least 2 times. / 3-day MTT
# Method: as §1
# RMG1 = tested on: RMG1; parameters: MTT antiproliferation assay, absorbance at 570 nm, human cancer cell line panel; conditions: 3-day MTT; inhibitor; read-out: Table S1. IC50 of CCT271850 determined by MTT and clonogenic assays (CA). / All cell lines were tested at least 2 times. / 3-day MTT
# Method: as §1
# Suit-2 = tested on: Suit-2; parameters: MTT antiproliferation assay, absorbance at 570 nm, human cancer cell line panel; conditions: 3-day MTT; inhibitor; read-out: Table S1. IC50 of CCT271850 determined by MTT and clonogenic assays (CA). / All cell lines were tested at least 2 times. / 3-day MTT
# Method: as §1
# HN15 = tested on: HN15; parameters: MTT antiproliferation assay, absorbance at 570 nm, human cancer cell line panel; conditions: 3-day MTT; inhibitor; read-out: Table S1. IC50 of CCT271850 determined by MTT and clonogenic assays (CA). / All cell lines were tested at least 2 times. / 3-day MTT
# Method: as §1
# HN3 = tested on: HN3; parameters: MTT antiproliferation assay, absorbance at 570 nm, human cancer cell line panel; conditions: 3-day MTT; inhibitor; read-out: Table S1. IC50 of CCT271850 determined by MTT and clonogenic assays (CA). / All cell lines were tested at least 2 times. / 3-day MTT
# Method: as §1
# CFPAC-1 = tested on: CFPAC-1; parameters: MTT antiproliferation assay, absorbance at 570 nm, human cancer cell line panel; conditions: 3-day MTT; inhibitor; read-out: Table S1. IC50 of CCT271850 determined by MTT and clonogenic assays (CA). / All cell lines were tested at least 2 times. / 3-day MTT
# Method: as §1
# PATU-8988S = tested on: PATU-8988S; parameters: MTT antiproliferation assay, absorbance at 570 nm, human cancer cell line panel; conditions: 3-day MTT; inhibitor; read-out: Table S1. IC50 of CCT271850 determined by MTT and clonogenic assays (CA). / All cell lines were tested at least 2 times. / 3-day MTT
# Method: as §1
# IGROV1 = tested on: IGROV1; parameters: MTT antiproliferation assay, absorbance at 570 nm, human cancer cell line panel; conditions: 3-day MTT; inhibitor; read-out: Table S1. IC50 of CCT271850 determined by MTT and clonogenic assays (CA). / All cell lines were tested at least 2 times. / 3-day MTT
# Method: as §1
# HN6 = tested on: HN6; parameters: clonogenic colony formation assay, growth inhibition IC50; conditions: 14-day clonogenic; read-out: Table S1. IC50 of CCT271850 determined by MTT and clonogenic assays (CA). / All cell lines were tested at least 2 times. / 14-day CA
# Method: (§2) To evaluate CCT271850 antiproliferation effects in a large panel of human cancer cell lines, 91 cell lines were treated for 72 h and 14 days at different compound concentrations in growth inhibition assays. The growth inhibition values as measured by IC50 are summarised in Table 2 and Supplementary Table S1. […] Cell lines from colon and head and neck cancers were among the most sensitive.
# PJ34 [2] = tested on: PJ34; parameters: 14-day clonogenic growth inhibition assay, human cancer cell line panel; conditions: 14-day clonogenic assay; inhibitor; read-out: Table S1. IC50 of CCT271850 determined by MTT and clonogenic assays (CA). / All cell lines were tested at least 2 times. / 14-day CA
# Method: as §2
structure (smiles),measurement,setting,value
"COc1cc(-c2cnn(C)c2)ccc1Nc1ncc2ccnc(N[C@@H](C)C(C)(C)C)c2n1 [34h, CCT271850]",IC50,OVCAR4,4950 nM
same,IC50,O13,1260 nM
same,IC50,TYK-Nu,990 nM
same,IC50,OVCAR3,> 100000 nM
same,IC50,011B,2220 nM
same,IC50,PATU-8988T,665 nM
same,IC50,005A,940 nM
same,IC50,015B,350 nM
same,IC50,PANC-1,1380 nM
same,IC50,EF027,787 nM
same,IC50,Lon-HN5,325 nM
same,IC50,PA-1,2250 nM
same,IC50,PJ34 [1],1120 nM
same,IC50,PJ41,520 nM
same,IC50,CAL27,227 nM
same,IC50,RMG1,111 nM
same,IC50,Suit-2,435 nM
same,IC50,HN15,1740 nM
same,IC50,HN3,845 nM
same,IC50,CFPAC-1,910 nM
same,IC50,PATU-8988S,2020 nM
same,IC50,IGROV1,3590 nM
same,IC50,HN6,15000 nM
same,IC50,PJ34 [2],35 nM
